Measured values as given in PubChem BioAssay (NCI).
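Results reflect a 48-hour exposure of cells in 96-well plates to compound at five concentrations. GI50 marks 50% less growth. Definition used: TGI = concentration required for complete inhibition of growth.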

Columns and labels:
Assay in all cases: NCI anticancer screen, dose series, 48 h
HOP-62 NSCLC = test system: HOP-62 NSCLC
MALME-3M melanoma = test system: MALME-3M melanoma
UACC-62 melanoma = test system: UACC-62 melanoma
RXF 393 renal = test system: RXF 393 renal
CCRF-CEM leukemia = test system: CCRF-CEM leukemia
HCC-2998 colon = test system: HCC-2998 colon
DU-145 prostate = test system: DU-145 prostate
OVCAR-8 ovarian = test system: OVCAR-8 ovarian
PC-3 prostate = test system: PC-3 prostate
SNB-19 CNS = test system: SNB-19 CNS
NCI-H522 lung = test system: NCI-H522 lung
HOP-92 NSCLC = test system: HOP-92 NSCLC
HT29 colon = test system: HT29 colon
MOLT-4 leukemia = test system: MOLT-4 leukemia
MDA-MB-231 breast = test system: MDA-MB-231 breast
NCI-H460 lung = test system: NCI-H460 lung
SNB-75 CNS = test system: SNB-75 CNS
BT-549 breast = test system: BT-549 breast
IGROV1 ovarian = test system: IGROV1 ovarian
SF-539 CNS = test system: SF-539 CNS
NCI-H226 lung = test system: NCI-H226 lung
OVCAR-3 ovarian = test system: OVCAR-3 ovarian
A498 renal = test system: A498 renal
SR leukemia = test system: SR leukemia
HCT-15 colon = test system: HCT-15 colon
MCF7 breast = test system: MCF7 breast
MDA-MB-435 = test system: MDA-MB-435
SK-MEL-28 melanoma = test system: SK-MEL-28 melanoma
TK-10 renal = test system: TK-10 renal
COLO 205 colon = test system: COLO 205 colon
KM12 colon = test system: KM12 colon
786-0 renal = test system: 786-0 renal
HL-60(TB) leukemia = test system: HL-60(TB) leukemia
U251 CNS = test system: U251 CNS
SK-OV-3 ovarian = test system: SK-OV-3 ovarian
UO-31 renal = test system: UO-31 renal
SK-MEL-5 melanoma = test system: SK-MEL-5 melanoma
ACHN renal = test system: ACHN renal
SW-620 colon = test system: SW-620 colon
SN12C renal = test system: SN12C renal
RPMI-8226 leukemia = test system: RPMI-8226 leukemia
NCI/ADR-RES ovarian = test system: NCI/ADR-RES ovarian
HCT-116 colon = test system: HCT-116 colon
OVCAR-4 ovarian = test system: OVCAR-4 ovarian
SF-295 CNS = test system: SF-295 CNS
T-47D breast = test system: T-47D breast
A549 NSCLC = test system: A549 NSCLC
M14 melanoma = test system: M14 melanoma
K-562 leukemia = test system: K-562 leukemia
SK-MEL-2 melanoma = test system: SK-MEL-2 melanoma
CAKI-1 renal = test system: CAKI-1 renal
OVCAR-5 ovarian = test system: OVCAR-5 ovarian
LOX IMVI melanoma = test system: LOX IMVI melanoma
HS 578T breast = test system: HS 578T breast
SF-268 CNS = test system: SF-268 CNS
NCI-H23 lung = test system: NCI-H23 lung

In the case of `O=C(Nc1ccc2[nH]c3ccccc3c2c1)c1ccccc1Cl`, the GI50 (HOP-62 NSCLC) is reported as 59.4 µM, the TGI (HOP-62 NSCLC) is reported as > 100 µM and the GI50 (MALME-3M melanoma) is reported as 4.64 µM. The TGI (MALME-3M melanoma) was > 100 µM, the GI50 (UACC-62 melanoma) was 6.53 µM and the TGI (UACC-62 melanoma) was > 100 µM. The GI50 (RXF 393 renal) was 2.49 µM, the TGI (RXF 393 renal) was 8.99 µM and the GI50 (CCRF-CEM leukemia) was 3.7 µM. The TGI (CCRF-CEM leukemia) was > 100 µM, the GI50 (HCC-2998 colon) was 3.84 µM and the TGI (HCC-2998 colon) was 18.5 µM. The GI50 (DU-145 prostate) was 6.09 µM, the TGI (DU-145 prostate) was > 100 µM and the GI50 (OVCAR-8 ovarian) was 6.33 µM. For the same molecule, the TGI (OVCAR-8 ovarian) was > 100 µM, the GI50 (PC-3 prostate) was 3.31 µM and the TGI (PC-3 prostate) was > 100 µM. The GI50 (SNB-19 CNS) was 8.16 µM, the TGI (SNB-19 CNS) was > 100 µM and the GI50 (NCI-H522 lung) was 2.92 µM. For the same molecule, the TGI (NCI-H522 lung) was 9.66 µM, the GI50 (HOP-92 NSCLC) was 2.84 µM and the TGI (HOP-92 NSCLC) was > 100 µM. For the same molecule, the GI50 (HT29 colon) was 3.78 µM, the TGI (HT29 colon) was > 100 µM and the GI50 (MOLT-4 leukemia) was 5.86 µM. For the same molecule, the TGI (MOLT-4 leukemia) was > 100 µM, the GI50 (MDA-MB-231 breast) was 2.96 µM and the TGI (MDA-MB-231 breast) was 20.4 µM. The GI50 (NCI-H460 lung) was 3.75 µM, the TGI (NCI-H460 lung) was > 100 µM and the GI50 (SNB-75 CNS) was 2.8 µM. The TGI (SNB-75 CNS) was 24.6 µM, the GI50 (BT-549 breast) was 5.63 µM and the TGI (BT-549 breast) was > 100 µM. The GI50 (IGROV1 ovarian) was 8.85 µM, the TGI (IGROV1 ovarian) was > 100 µM and the GI50 (SF-539 CNS) was 2.49 µM. The TGI (SF-539 CNS) was 7.22 µM, the GI50 (NCI-H226 lung) was 5.53 µM and the TGI (NCI-H226 lung) was > 100 µM. The GI50 (OVCAR-3 ovarian) was 3.43 µM, the TGI (OVCAR-3 ovarian) was 12.8 µM and the GI50 (A498 renal) was 2.32 µM. The TGI (A498 renal) was 9.19 µM, the GI50 (SR leukemia) was 2.7 µM and the TGI (SR leukemia) was > 100 µM. For the same molecule, the GI50 (HCT-15 colon) was 2.95 µM, the TGI (HCT-15 colon) was > 100 µM and the GI50 (MCF7 breast) was 3.57 µM. The TGI (MCF7 breast) was > 100 µM, the GI50 (MDA-MB-435) was 0.969 µM and the TGI (MDA-MB-435) was > 100 µM. The GI50 (SK-MEL-28 melanoma) was 5.95 µM, the TGI (SK-MEL-28 melanoma) was > 100 µM and the GI50 (TK-10 renal) was 7.25 µM. For the same molecule, the TGI (TK-10 renal) was > 100 µM, the GI50 (COLO 205 colon) was 3.5 µM and the TGI (COLO 205 colon) was > 100 µM. It also gave a GI50 (KM12 colon) of 2.32 µM, a TGI (KM12 colon) of 11.6 µM and a GI50 (786-0 renal) of 4.05 µM. The TGI (786-0 renal) was 51 µM, the GI50 (HL-60(TB) leukemia) was 3.07 µM and the TGI (HL-60(TB) leukemia) was > 100 µM. The GI50 (U251 CNS) was 4.62 µM, the TGI (U251 CNS) was > 100 µM and the GI50 (SK-OV-3 ovarian) was 8.46 µM. For the same molecule, the TGI (SK-OV-3 ovarian) was > 100 µM, the GI50 (UO-31 renal) was 5.2 µM and the TGI (UO-31 renal) was > 100 µM. The GI50 (SK-MEL-5 melanoma) was 2.88 µM, the TGI (SK-MEL-5 melanoma) was > 100 µM and the GI50 (ACHN renal) was 4.98 µM. The TGI (ACHN renal) was > 100 µM, the GI50 (SW-620 colon) was 3.91 µM and the TGI (SW-620 colon) was > 100 µM. The GI50 (SN12C renal) was 5.16 µM, the TGI (SN12C renal) was > 100 µM and the GI50 (RPMI-8226 leukemia) was 4.42 µM. For the same molecule, the TGI (RPMI-8226 leukemia) was > 100 µM, the GI50 (NCI/ADR-RES ovarian) was 3.64 µM and the TGI (NCI/ADR-RES ovarian) was > 100 µM. For the same molecule, the GI50 (HCT-116 colon) was 4.86 µM, the TGI (HCT-116 colon) was > 100 µM and the GI50 (OVCAR-4 ovarian) was 6.83 µM. The TGI (OVCAR-4 ovarian) was > 100 µM, the GI50 (SF-295 CNS) was 3.63 µM and the TGI (SF-295 CNS) was > 100 µM. For the same molecule, the GI50 (T-47D breast) was 8.21 µM, the TGI (T-47D breast) was > 100 µM and the GI50 (A549 NSCLC) was 4.32 µM. For the same molecule, the TGI (A549 NSCLC) was > 100 µM, the GI50 (M14 melanoma) was 3.81 µM and the TGI (M14 melanoma) was > 100 µM. The GI50 (K-562 leukemia) was 2.63 µM, the TGI (K-562 leukemia) was > 100 µM and the GI50 (SK-MEL-2 melanoma) was 5.35 µM. The TGI (SK-MEL-2 melanoma) was 74.8 µM, the GI50 (CAKI-1 renal) was 3.47 µM and the TGI (CAKI-1 renal) was > 100 µM. For the same molecule, the GI50 (OVCAR-5 ovarian) was 10.3 µM, the TGI (OVCAR-5 ovarian) was > 100 µM and the GI50 (LOX IMVI melanoma) was 3.41 µM. The TGI (LOX IMVI melanoma) was 39 µM, the GI50 (HS 578T breast) was 3.84 µM and the TGI (HS 578T breast) was 86.8 µM. For the same molecule, the GI50 (SF-268 CNS) was 6.77 µM, the TGI (SF-268 CNS) was > 100 µM and the GI50 (NCI-H23 lung) was 12.2 µM. For the same molecule, the TGI (NCI-H23 lung) was > 100 µM.
